Experimental data taken from PubChem BioAssay (NCI).
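Interpolation was linear, between the two tested concentrations surrounding the appropriate level; five concentrations were tested over 48 hours in 96-well plates. TGI is the concentration that stops growth completely.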

Legend:
Experiment in all cases: NCI-60 cell line screen, 48 h
[1] = tested on: A549 NSCLC
[2] = tested on: HL-60(TB) leukemia
[3] = tested on: HOP-62 NSCLC
[4] = tested on: HT29 colon
[5] = tested on: MDA-MB-231 breast
[6] = tested on: MOLT-4 leukemia
[7] = tested on: NCI-H23 lung
[8] = tested on: SK-MEL-2 melanoma
[9] = tested on: SNB-19 CNS
[10] = tested on: SNB-75 CNS

| SMILES | TGI [1] | TGI [2] | TGI [3] | TGI [4] | TGI [5] | TGI [6] | TGI [7] | TGI [8] | TGI [9] | TGI [10] |
| --- | --- | --- | --- | --- | --- | --- | --- | --- | --- | --- |
| O=C1Nc2cccc(Cl)c2/C1=C\c1c(-c2ccccc2)nc2n1CCS2 | 49.1 µM | 41.3 µM | 66.1 µM | 42.5 µM | 49 µM | 39.4 µM | 88.7 µM | 46.2 µM | 66.1 µM | 66.8 µM |
| O=c1cc(N2CCOCC2)n2c(ccc3ccccc32)n1 | > 100 µM | > 100 µM | > 100 µM | > 100 µM | > 100 µM | > 100 µM | > 100 µM | > 100 µM | > 100 µM | > 100 µM |
| CSc1nnc(SCc2nn3c(=O)cc(C)nc3s2)s1 | > 100 µM | > 100 µM | > 100 µM | > 100 µM | > 100 µM | > 100 µM | > 100 µM | > 100 µM | > 100 µM | > 100 µM |
| Cc1cc2nc3ccccc3n2c2ccccc12 | > 10 µM | > 10 µM | > 10 µM | > 10 µM | > 10 µM | > 10 µM | > 10 µM | > 10 µM | > 10 µM | > 10 µM |
| Cc1nc2ccc(Br)cc2c(=O)n1-c1ccc(N)cc1 | > 100 µM | > 100 µM | > 100 µM | > 100 µM | > 100 µM | > 100 µM |  | > 100 µM | > 100 µM | > 100 µM |
| CC(C)[C@H](C)/C=C/[C@@H](C)C1CC[C@H]2[C@@]34C=C[C@]5(C[C@@H](O)CC[C@]5(C)[C@H]3CC[C@]12C)OO4 (some centres not stated) | > 100 µM | 57.1 µM | > 100 µM | 53.7 µM | 84.9 µM | > 100 µM | 92.5 µM | 88.8 µM | 81.7 µM | > 100 µM |
| Oc1ccc(Cl)cc1-c1cc(-c2ccccc2)nc(=S)[nH]1 | > 100 µM | > 100 µM | 46.9 µM | > 100 µM | 85.8 µM | > 100 µM | > 100 µM | 78.2 µM | > 100 µM | 59.2 µM |
| COC(=O)C1C(=O)CC(C)(O)C(C(=O)OC)C1c1ccc(N(C)C)cc1 (configuration not stated) | > 100 µM | > 100 µM | > 100 µM | > 100 µM | > 100 µM | > 100 µM | > 100 µM | > 100 µM | > 100 µM | > 100 µM |
| C=C(CN(CC)CC)C1(c2ccccc2)CC2(CCCC2)C(=O)O1 (configuration not stated) | > 100 µM | > 100 µM | > 100 µM | 77.9 µM | > 100 µM | > 100 µM | 98.9 µM | > 100 µM | > 100 µM | 92.6 µM |
| C=C(Br)C[N+]12CN3CN(CN(C3)C1)C2 | > 100 µM | > 100 µM | > 100 µM | > 100 µM | > 100 µM | > 100 µM | > 100 µM | > 100 µM | > 100 µM | > 100 µM |
| Oc1cccc2c(Br)ccnc12 | > 100 µM | 0.983 µM | > 69 µM | 19.4 µM | 16.3 µM | 6.91 µM | 17.1 µM | 27.1 µM | 64.1 µM | 66.2 µM |
| [N-]=[N+]=Nc1nc2ccccc2c(N=[N+]=[N-])c1Cl | > 100 µM | > 100 µM | > 100 µM | > 100 µM | > 100 µM | > 100 µM | > 100 µM | > 100 µM | > 100 µM | > 100 µM |
| Clc1ccc(-c2nn3c(COc4cccc(OCc5nnc6sc(-c7ccc(Cl)cc7)nn56)c4)nnc3s2)cc1 | 73.2 µM | 53.6 µM | > 100 µM | 60.2 µM | > 100 µM | 74.6 µM | 71.3 µM | > 100 µM | > 100 µM | 73.5 µM |
| Cc1cc(S(=O)(=O)Nc2nc3cscc3c(=O)n2N)c(S)cc1Cl | > 100 µM | > 100 µM | > 100 µM | > 100 µM | > 100 µM | > 100 µM | > 100 µM | > 100 µM | > 100 µM | 58.5 µM |
| COc1cccc(NC(=O)CC(=O)n2nc(-c3ccccc3)c(N=Nc3ccc(Cl)cc3)c2-c2ccccc2)c1 | > 85.7 µM | 56.1 µM | 90.9 µM | 56.7 µM | > 100 µM | > 59.3 µM | > 78.1 µM | 89.1 µM | > 100 µM | > 86.9 µM |
| CC(C)(C)OC(=O)C(C#N)C(=O)c1ccc(C(=O)O)[nH]1 (configuration not stated) | > 100 µM | 62.1 µM |  | > 100 µM | > 100 µM | > 100 µM | > 100 µM | 68.5 µM | > 100 µM | > 100 µM |
| COC(=O)[C@@H](NS(=O)(=O)CC12CCC(CC1)C2(C)C)C(C)(C)C | > 100 µM | > 100 µM |  | > 100 µM | > 100 µM | 70 µM | > 100 µM | > 100 µM | > 100 µM | > 100 µM |
| O=C1C=CC2(O[C@H](C3CCCCC3)[C@@H](C3CCCCC3)O2)C(SC(=O)c2ccccc2)C1 (some centres not stated) | 45.8 µM | 7.37 µM | 9.57 µM | 3.85 µM | 5.11 µM | 3.77 µM | 8.93 µM | 12.8 µM | 6.56 µM | 14.4 µM |
| CC(C)OP(=O)(OC(C)C)C(C(C)C)N(C)C(N)=NC#N (configuration not stated) | > 100 µM | > 100 µM | > 100 µM | > 100 µM | > 100 µM | > 100 µM | > 100 µM | > 100 µM | > 100 µM | > 100 µM |
| CC(=O)CC(=O)N1CCSC1=S | > 10 µM | > 10 µM | > 10 µM | > 10 µM | > 10 µM | > 10 µM | > 10 µM | > 10 µM | > 10 µM | > 10 µM |
